Like-named read-outs stand apart in the source and are kept apart here.

The test system of assay [1] is PD-L1 (CD274) mRNA in LOXIMV1 tumors. Kind of assay: TaqMan RT PCR of PD-L1 mRNA in LOXIMV1 tumor xenograft model. Conditions: tumor xenograft model bearing LOXIMV1 (BRAF mutant melanoma); FIG. 18. The class given is in vivo, human. As to the method: (§1) TaqMan RT PCR assays were developed to detect changes of expression levels of PD-L1 (CD274) in cell lines and xenograft tumors. mRNA was isolated from frozen cell pellets or tumor fragments using the Qiagen RNeasy Mini kit. Isolated RNA was frozen at −80° C. RNA quality was checked and RNA was quantified using a 2100 Agilent Bioanalyzer following the protocol for the Agilent RNA 6000 Nano Kit. cDNA was prepared using a High Capacity RNA- to cDNA Kit (Applied Biosystems).
(§2) Real-time PCR reactions were carried out in 20 μl total volume, including 10 μl of Universal PCR master mix (Applied Biosystems), 1 μl of human PD-L1 (CD274) probe/primer set (Applied Biosystems), and 8 μl of cDNA. Each sample was run in triplicate. The amount of cDNA produced from 25-50 ng of RNA in the reverse transcription reaction was used in each PCR reaction. Due to difference in mRNA levels between PD-L1 and GAPDH, the two real-time PCR reactions were done in separate tubes using same amount of cDNA. The real-time PCR reaction was run on the C1000 Thermal Cycle (BioRad) with the cycle program as follows: a 10 minute incubation at 95° C. followed by 40 cycles of 95° C. for 15 seconds and 60° C. for 1 minute. After the reaction was complete, the PD-L1 average Ct was normalized relative to each Ct value from the GAPDH reference reaction. Each normalized logarithmic value was then converted into a linear value.

The subject of assay [2] is PD-L1 (CD274) mRNA in H3122 cells. Briefly: TaqMan RT PCR of PD-L1 mRNA in H3122 cells in vitro. The class given is cell-based, human. Conditions: H3122 (NSCLC with ALK translocation) in vitro; FIG. 17. As to the method:
as §1, §2

Assay [3] concerns PD-L1 (CD274) surface expression in EBC-1 cells. Briefly: Flow cytometry of PD-L1 surface expression in EBC-1 cells in vitro. Type of assay: cell-based, human. Conditions: EBC-1 cells (NSCLC with cMET amplification); 10 nM, 100 nM, 1000 nM for 24, 48 and 72 hours; FIG. 15. As to the method:
PD-L1 (CD274) expression was analyzed in cancer cell lines treated with Compound A17. Cells were obtained from ATCC and cultured in vitro following ATCC directions. The cell lines used were previously characterized by the Cancer Cell Line Encyclopedia Project (broadinstitute.org/ccle/home).
Cells plated in six-well culture plates were treated with the Compound A17 at different concentrations (10 nM, 100 nM, and 1000 nM) for 24, 48 and 72 hours. Equal amount of vehicle (DMSO) was used as a control. Cells were washed with PBS and then harvested using a cell scraper.
For each reaction, 0.5-1×10^6 cells were stained with 20 μL of anti-human monoclonal PD-L1-PE antibody, clone M1H1 (BD) for 30-60 minutes at 4° C. Cells were washed twice and data was acquired using a Canto II with FACSDiva software (BD Bioscience). Data analysis was performed using FlowJo software (Tree Star). Mean fluorescence intensity (MFI) was determined by gating on single cells. Unstained cells were used as a gating control.

For assay [4], the system named is PD-L1 (CD274) mRNA in Hs.746.T tumor. Kind of assay: TaqMan RT PCR of PD-L1 mRNA in Hs.746.T tumor xenograft. The class given is in vivo, human. The following applies: Hs.746.T tumor (gastric cancer cell with cMET amplification & mutation) xenograft; FIG. 16.
Assay [5] has as its system PD-L1 (CD274) mRNA in UKE-1 tumors. Briefly: TaqMan RT PCR of PD-L1 mRNA in UKE-1 tumor xenograft model. The class given is in vivo, human. Conditions: tumor xenograft model bearing UKE-1 (MPN line with JAK2V617F mutation); FIG. 20.
Assay [6] has as its system PD-L1 (CD274) mRNA in HEYA8 tumors. Briefly: TaqMan RT PCR of PD-L1 mRNA in HEYA8 tumor xenograft model. The class given is in vivo, human. The following applies: tumor xenograft model bearing HEYA8 (KRAS mutant ovarian cancer); FIG. 19. As for the experimental part: as §1, §2
The next assay has as its system IFN-γ expression. The class given is cell-based.
The subject of the next assay is CD8^+ T cells. Briefly: Proliferation of CD8+ T cells activated with CMV peptides. The class given is cell-based. Conditions: percentages of CD8+ cells that passed through at least n cell divisions (n=2, 4, 6).

In the case of `COC(=O)N[C@@H](C)CNc1nccc(-c2cn(C(C)C)nc2-c2cc(Cl)cc(NS(C)(=O)=O)c2F)n1` [Compound A29, Encorafenib], the “PD-L1 mRNA” value in assay [1] is given as “Downregulation”.
`Cc1cc(Nc2ncc(Cl)c(Nc3ccccc3S(=O)(=O)C(C)C)n2)c(OC(C)C)cc1C1CCNCC1` [Compound A23, ceritinib]: in assay [2], the “PD-L1 mRNA” value is recorded as “Inhibition”.
For the molecule `CNC(=O)c1ccc(-c2cnc3ncc(Cc4ccc5ncccc5c4)n3n2)cc1F` [Compound A17, 2-fluoro-N-methyl-4-(7-(quinolin-6-ylmethyl)imidazo[1,2-b][1,2,4]triazin-2-yl)benzamide], in assay [3], the “surface expression of PD-L1 (flow cytometry)” value is reported as “significant downregulation”. Besides, the “PD-L1 expression (mRNA)” value in assay [4] is on record as “Inhibition”.
With `N#CC[C@H](C1CCCC1)n1cc(-c2ncnc3[nH]ccc23)cn1` [Compound A18, Ruxolitinib Phosphate], in assay [5], the “PD-L1 mRNA” value was “Downregulation”.
Take `Cn1cnc2c(F)c(Nc3ccc(Br)cc3F)c(C(=O)NOCCO)cc21` [Compound A34, Binimetinib]: the “PD-L1 mRNA” value in assay [6] is “Downregulation”.

B1: BAP049: murine anti-PD-1 monoclonal antibody; sequences in Table 1 (antibody, V domains shown)
VH: QVQLQQSGSELVRPGASVKLSCKASGYTFTTYWMHWVRQRPGQGLEWIGNIYPGTGGSNFDEKFKNRTSLTVDTSSTTAYMHLASLTSEDSAVYYCTRWTTGTGAYWGQGTLVTVSA
VL: DIVMTQSPSSLTVTAGEKVTMSCKSSQSLLDSGNQKNFLTWYQQKPGQPPKLLIFWASTRESGVPDRFTGSGSVTDFTLTISSVQAEDLAVYYCQNDYSYPCTFGGGTKLEIK
Consider B1, for which the “fold increase in IFN-γ expression” value in the assay on IFN-γ expression came to 2.8±0.8 fold; with IFN-γ expression (cells stimulated with Staphylococcal enterotoxin B (SEB) (3 μg/mL)), 2.5±2.0 fold. Also, in the assay on CD8^+ T cells, the “proliferation of CD8+ T cells activated with CMV peptides” value is “increase proliferation”.
